Reference: patent US20230158102A1 (priority 2020, published 2023)
Like-named read-outs stand apart in the source and are kept apart here.

Experiments:
[1] = test system: SARS-CoV-2 (COVID-19); test: Study APLICOV-PC (NCT04382066): efficacy in patients hospitalised for COVID-19; type: in vivo, human; conditions: for Patients discharged from hospital by Day 31, (%) / Patients requiring oxygen therapy at Day 31, (%): 744 h; for Patients discharged from hospital by Day 8, (%): 192 h
[2] = Storage stability of plitidepsin vials and reconstituted solution; type: physicochemical
Protocol: Plitidepsin will be labelled with the study protocol code, the batch number, the content, the expiry date, the storage conditions, the name of the investigator and the sponsor. The study drug will be labelled in accordance with Annex 13 of the European Good Manufacturing Practices. Plitidepsin should be stored between 2° C. and 8° C. and the vials should be kept in the outer carton to protect them from light. The drug in these conditions is stable for 60 months.
After reconstitution of the 2 mg plitidepsin vial with 4 ml of the solution for reconstitution of macrogolglycerol ricinoleate/ethanol/water for injection, the reconstituted solution should be diluted and used immediately after preparation. If not used immediately, storage times and conditions until use are the responsibility of the user. […] If storage is required before administration, solutions should be stored refrigerated and protected from light and should be used within 24 hours after reconstitution.

[3] = test system: SARS-CoV-2; test: SARS-CoV-2 replication in human stem cell-derived pneumocyte like cells; type: cell-based; conditions: 10 nm plitidepsin for 1 hour before infection (4×10^4 pfu), 48 hour incubation
Protocol: Several in vitro experiments aimed at determining the effect of plitidepsin on SARS-CoV-2 were carried out and are disclosed herein. […] In another study, human stem cell-derived pneumocyte like cells were prophylactically exposed to 10 nm plitidepsin for 1 hour and then infected with SARS-CoV-2 (4×10^4 plaque forming units). After a 48 hour incubation period, both antiviral and cytotoxic plitidepsin effects were determined.

[4] = test system: HCoV-229E; type: cell-based
[5] = in vitro; conditions: African green monkey

SMILES: CC[C@H](C)[C@H]1NC(=O)[C@@H](NC(=O)[C@@H](CC(C)C)N(C)C(=O)[C@@H]2CCCN2C(=O)C(C)=O)[C@@H](C)OC(=O)[C@H](Cc2ccc(OC)cc2)N(C)C(=O)[C@@H]2CCCN2C(=O)[C@H](CC(C)C)NC(=O)[C@@H](C)C(=O)[C@H](C(C)C)OC(=O)C[C@@H]1O [PLD, (−)-(3S,6R,7S,10R,11S,15S,17S,20S,25aS)-11-hydroxy-3-(4-methoxybenzyl)-2,6,17-trimethyl-15-(1-methylethyl)-7-[[(2R)-4-methyl-2-[methyl[[(2S)-1-(2-oxopropanoyl)pyrrolidin-2-yl]carbonyl]amino]pentanoyl]amino]-10-[(1S)-1-methylpropyl]-20-(2-methylpropyl)tetradecahydro-15H-pyrrolo[2,1-f]-[1,15,4,7,10,20]dioxatetrazacyclotricosine-1,4,8,13,16,18,21(17H)-heptone]
- Patients discharged from hospital by Day 15, (%) ([1]; 2 mg, 360 h): (93.3) %
- Patients requiring oxygen therapy at Day 15, (%) ([1]; 2 mg, 360 h): (6.7) %
- Patients discharged from hospital by Day 31, (%) ([1]; 2 mg): (93.3) %
- Patients requiring oxygen therapy at Day 31, (%) ([1]; 2 mg): (13.3) %
- Mean time from baseline until undetectable viral load ([1]; 2.5 mg): 12 days
- Mortality from Day 1 to Day 31, (%) ([1]; 2.5 mg): (6.7) %
- Patients requiring ICU admission from Day 1 to Day 7, (%) ([1]; 2.5 mg): (13.3) %
- Patients requiring ICU admission from Day 1 to Day 15, (%) ([1]; 2.5 mg): (20.0) %
- Patients requiring ICU admission from Day 1 to Day 31, (%) ([1]; 2.5 mg): (20.0) %
- Patients requiring invasive mechanical ventilation and/or ICU admission from Day 1 to Day 7, (%) ([1]; 2.5 mg): (13.3) %
- Patients requiring invasive mechanical ventilation and/or ICU admission from Day 1 to Day 15, (%) ([1]; 2.5 mg): (20.0) %
- Patients requiring invasive mechanical ventilation and/or ICU admission from Day 1 to Day 31, (%) ([1]; 2.5 mg): (20.0) %
- Patients requiring noninvasive mechanical ventilation from Day 1 to Day 7, (%) ([1]; 2.5 mg): (6.7) %
- Patients requiring noninvasive mechanical ventilation from Day 1 to Day 15, (%) ([1]; 2.5 mg): (13.3) %
- Patients requiring noninvasive mechanical ventilation from Day 1 to Day 31, (%) ([1]; 2.5 mg): (13.3) %
- Patients requiring oxygen therapy at Day 7, (%) ([1]; 2.5 mg, 168 h): (73.3) %
- Patients discharged from hospital by Day 8, (%) ([1]; 2.5 mg): (66.7) %
- Patients discharged from hospital by Day 15, (%) ([1]; 2.5 mg, 360 h): (73.3) %
- Patients requiring oxygen therapy at Day 15, (%) ([1]; 2.5 mg, 360 h): (26.7) %
- Patients discharged from hospital by Day 31, (%) ([1]; 2.5 mg): (86.7) %
- Patients requiring oxygen therapy at Day 31, (%) ([1]; 2.5 mg): (6.7) %
- Mean reduction in viral load by Day 7 ([1]; 168 h): −3.1 log10 copies/mL
- Patients requiring oxygen therapy at Day 7, (%) ([1]; 168 h): (70.5) %
- Patients discharged from hospital by Day 8, (%) [1]: (56.8) %
- Patients discharged from hospital by Day 15, (%) ([1]; 360 h): (81.8) %
- Patients requiring oxygen therapy at Day 15, (%) ([1]; 360 h): (20.5) %
- Patients with mild disease discharged by Day 15 ([1]; 360 h): 100%
- Patients with moderate disease discharged by Day 15 ([1]; 360 h): 82%
- Patients with severe disease discharged by Day 15 ([1]; 360 h): 57%
- Reduction in baseline viral load by Day 15 ([1]; 360 h): −3.0 log
- Patients discharged from hospital by Day 31, (%) [1]: (90.9) %
- Patients requiring oxygen therapy at Day 31, (%) [1]: (6.8) %
- Mean reduction in viral load by Day 15 ([1]; across dose cohorts): 4.5 log10 copies/mL
- Stability of the drug on storage ([2]; between 2° C. and 8° C., vials in the outer carton protected from light): 60 months
- Physical, chemical and microbiological stability of the reconstituted concentrated solution ([2]; original vial under indoor light at room temperature): 6 hours
- Physical, chemical and microbiological stability of the reconstituted concentrated solution ([2]; refrigerated conditions (5° C.±3° C.)): 24 hours
- Tolerability of treatment (1.5, 2.0 and 2.5 mg daily for 3 days, 45 patients): well tolerated
- Prevalence of Grade ≥3 AEs (1.5-mg cohort): 33.3%
- Prevalence of Grade ≥3 AEs (2.0-mg cohort): 20.0%
- Prevalence of Grade ≥3 AEs (2.5-mg cohort): 40.0
- Events of special interest: Grade ≥3 ALT elevation (all cohorts): 1 case
- Patients unable to complete plitidepsin treatment (all cohorts): 1 patient
- Patients who experienced Grade ≥3 AEs (all cohorts (14/45)): 31%
- Patients who experienced a treatment-related Grade ≥3 AE (all cohorts, 45 patients): 2 patients
- Patients who experienced SAEs (dosed at 1.5 mg): 6 patients
- Patients who experienced SAEs (dosed at 2.0 mg): 1 patients
- Patients who experienced SAEs (dosed at 2.5 mg): 3 patients
- Patients with a 2 grade increase in CPK (human, in vivo): 1 patient
- Patients who experienced SAEs (total): 10 patients
- Replication of SARS-CoV-2 [3]: completely eliminated replication of SARS-CoV-2
- Concentration as low as which an antiviral effect was induced [4]: 0.5 nM
- CC50 [5]: 178 to 431 nM
